Experimental findings from patent US12344597B2, “Alkoxy-substituted pyridinyl derivatives as LPA1 receptor antagonists and their use in the treatment of fibrosis” (IDORSIA PHARMACEUTICALS LTD, priority 2018, dated 2025) are described below.

Chain of human LPA1 receptor (Q92633 whole entry, the tested form may be a part): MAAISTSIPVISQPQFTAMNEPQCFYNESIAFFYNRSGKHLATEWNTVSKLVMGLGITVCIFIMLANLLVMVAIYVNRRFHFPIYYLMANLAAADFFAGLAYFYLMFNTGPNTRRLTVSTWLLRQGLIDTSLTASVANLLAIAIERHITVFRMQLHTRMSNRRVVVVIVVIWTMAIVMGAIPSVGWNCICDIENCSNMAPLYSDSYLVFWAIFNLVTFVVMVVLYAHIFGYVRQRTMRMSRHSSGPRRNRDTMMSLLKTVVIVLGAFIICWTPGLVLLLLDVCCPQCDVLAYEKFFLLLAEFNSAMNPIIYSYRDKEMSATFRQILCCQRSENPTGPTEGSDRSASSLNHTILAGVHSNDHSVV

For the assay, the target named is human LPA1 receptor (Homo sapiens (Human), UniProt Q92633). In words: Beta-arrestin recruitment assay to determine IC50 values for human LPAR1. The class given is cell-based. Particulars: antagonist mode, Tango EDG2-bla U2OS cells, LPA 18:1 500 nM final. The procedure, abridged:
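Tango EDG2-bla U2OS cells: LPA-driven beta-arrestin/TEV protease recruitment releases Gal4-VP16, inducing beta-lactamase reporter read with live-cell substrate. Cells seeded 20 h at 37 °C beforehand. IC50 is antagonist concentration inhibiting 50% of maximal response.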
`Cc1ccc(NC(=O)C2(c3ccccc3C(C)C)CN(CCCC(C)(C)C(=O)O)C2)c(OC(F)F)n1` [Ex 11-69, 5-(3-((2-(difluoromethoxy)-6-methylpyridin-3-yl)carbamoyl)-3-(2-isopropylphenyl)azetidin-1-yl)-2,2-dimethylpentanoic acid] displayed an IC50 of 15 nM. The molecule `Cc1ccc(NC(=O)C2(c3ccccc3C(C)C)CN(C(=O)CC(C)C(=O)O)C2)c(OC(F)F)n1` (centres unmarked) [Ex 12-78, 4-(3-((2-(difluoromethoxy)-6-methylpyridin-3-yl)carbamoyl)-3-(2-isopropylphenyl)azetidin-1-yl)-2-methyl-4-oxobutanoic acid] showed an IC50 of 27 nM. Compared with the last molecule, the IC50 is about 1.8-fold higher. `Cc1ccc(NC(=O)C2(c3ccccc3C(C)C)CN(CCN(C)CC(=O)O)C2)c(OC(F)F)n1` [Ex 11-82, N-(2-(3-((2-(difluoromethoxy)-6-methylpyridin-3-yl)carbamoyl)-3-(2-isopropylphenyl)azetidin-1-yl)ethyl)-N-methylglycine] had an IC50 of 193 nM. As for `C=C(CC(=O)OC)C(=O)N1CC(C(=O)Nc2ccc(C)nc2OC(F)F)(c2ccccc2C(C)C)C1` [Ex 12-92, methyl 3-(3-((2-(difluoromethoxy)-6-methylpyridin-3-yl)carbamoyl)-3-(2-isopropylphenyl)azetidine-1-carbonyl)but-3-enoate], the IC50 is 110 nM.

The molecule `CC(=O)NS(=O)(=O)N(C)CC(=O)N1CC(C(=O)Nc2ccc(C)nc2OC(F)F)(c2ccccc2C(C)C)C1` [Ex 16-5, 1-(N-(N-acetylsulfamoyl)-N-methylglycyl)-N-(2-(difluoromethoxy)-6-methylpyridin-3-yl)-3-(2-isopropylphenyl)azetidine-3-carboxamide] displayed an IC50 of 47 nM. Compared with the last molecule, the IC50 is about 2.3-fold lower.

The molecule `Cc1ccc(NC(=O)C2(c3ccccc3C(C)C)CN(C(=O)CCCC#N)C2)c(OC(F)F)n1` [Ex 12-1, 1-(4-cyanobutanoyl)-N-(2-(difluoromethoxy)-6-methylpyridin-3-yl)-3-(2-isopropylphenyl)azetidine-3-carboxamide] returned an IC50 of 15 nM. In turn, `Cc1ccc(NC(=O)C2(c3ccccc3C(C)C)CN(C(=O)CNS(N)(=O)=O)C2)c(OC(F)F)n1` [Ex 12-128, N-(2-(difluoromethoxy)-6-methylpyridin-3-yl)-3-(2-isopropylphenyl)-1-(sulfamoylglycyl)azetidine-3-carboxamide] showed an IC50 of 10 nM. The molecule `Cc1ccc(NC(=O)C2(c3ccccc3C(C)C)CCN(C(=O)OCC(=O)O)CC2)c(OC(F)F)n1` [Ex 14-2, 2-((4-((2-(difluoromethoxy)-6-methylpyridin-3-yl)carbamoyl)-4-(2-isopropylphenyl)piperidine-1-carbonyl)oxy)acetic acid] displayed an IC50 of 4.3 nM.

As for `Cc1ccc(NC(=O)C2(c3ccccc3C(C)C)CCN(C(=O)Cn3nccn3)CC2)c(OC(F)F)n1` [Ex 12-22, 1-(2-(2H-1,2,3-triazol-2-yl)acetyl)-N-(2-(difluoromethoxy)-6-methylpyridin-3-yl)-4-(2-isopropylphenyl)piperidine-4-carboxamide], 7 nM corresponded to half-maximal inhibition (IC50). This IC50 lies about 1.6-fold higher than the previous one. Molecule `Cc1ccc(NC(=O)C2(c3ccccc3C(C)C)CN(C(=O)CC3(C(=O)O)CCOC3)C2)c(OC(F)F)n1` (centres unmarked) [Ex 12-123, 3-(2-(3-((2-(difluoromethoxy)-6-methylpyridin-3-yl)carbamoyl)-3-(2-isopropylphenyl)azetidin-1-yl)-2-oxoethyl)tetrahydrofuran-3-carboxylic acid] displayed an IC50 of 41 nM. With `Cc1ccc(NC(=O)C2(c3ccccc3C(C)C)CN(c3cccc(C(=O)O)n3)C2)c(OC(F)F)n1` [Ex 18-3, 6-(3-((2-(difluoromethoxy)-6-methylpyridin-3-yl)carbamoyl)-3-(2-isopropylphenyl)azetidin-1-yl)picolinic acid], the IC50 came out at 7 nM. This IC50 lies about 5.9-fold lower than the previous one. In turn, “1-((3-((3-(difluoromethoxy)-5-methylpyridin-2-yl)carbamoyl)-3-(2-isopropylphenyl)azetidine-1-carbonyl)oxy)cyclopropane-1-carboxylic acid [Ex 83-3]” yielded an IC50 of 76 nM. In the case of `COc1cc(Cl)cnc1NC(=O)C1(c2ccccc2C(C)C)CN(S(N)(=O)=O)C1` [Ex 81-1, N-(5-chloro-3-methoxypyridin-2-yl)-3-(2-isopropylphenyl)-1-sulfamoylazetidine-3-carboxamide] it was 15 nM.

Regarding `Cc1ccc(NC(=O)C2(c3ccccc3C(C)C)CN(C(=O)CCC(=O)C(F)(F)F)C2)c(OC(F)F)n1` [Ex 12-11, N-(2-(difluoromethoxy)-6-methylpyridin-3-yl)-3-(2-isopropylphenyl)-1-(5,5,5-trifluoro-4-oxopentanoyl)azetidine-3-carboxamide], half-maximal inhibition (IC50) required 7 nM. With `CNCCN1CC(C(=O)Nc2ccc(C)nc2OC(F)F)(c2ccccc2C(C)C)C1` [Ex 11-62, N-(2-(difluoromethoxy)-6-methylpyridin-3-yl)-3-(2-isopropylphenyl)-1-(2-(methylamino)ethyl)azetidine-3-carboxamide] the figure was 48 nM; with `Cc1ccc(NC(=O)C2(c3ccccc3C(C)C)CN(Cc3nc(CC(=O)O)co3)C2)c(OC(F)F)n1` [Ex 11-59, 2-(2-((3-((2-(difluoromethoxy)-6-methylpyridin-3-yl)carbamoyl)-3-(2-isopropylphenyl)azetidin-1-yl)methyl)oxazol-4-yl)acetic acid], 38 nM. On to `Cc1ccc(NC(=O)C2(c3ccccc3C(C)C)CN(Cc3n[nH]cc3C(=O)O)C2)c(OC(F)F)n1` [Ex 11-40, 3-((3-((2-(difluoromethoxy)-6-methylpyridin-3-yl)carbamoyl)-3-(2-isopropylphenyl)azetidin-1-yl)methyl)-1H-pyrazole-4-carboxylic acid], for which it took 270 nM to reach half-maximal inhibition (IC50). This IC50 lies about 7.1-fold higher than the previous one. In the case of `Cc1ccc(NC(=O)C2(c3ccccc3C(C)C)CN(CC(N)=O)C2)c(OC(F)F)n1` [Ex 11-15, 1-(2-amino-2-oxoethyl)-N-(2-(difluoromethoxy)-6-methylpyridin-3-yl)-3-(2-isopropylphenyl)azetidine-3-carboxamide], inhibition was half-maximal at 22 nM (IC50).

In the case of `Cc1ccc(NC(=O)C2(c3ccccc3C(C)C)CN(C(=O)C3(CC(=O)O)COC3)C2)c(OC(F)F)n1` [Ex 12-99, 2-(3-(3-((2-(difluoromethoxy)-6-methylpyridin-3-yl)carbamoyl)-3-(2-isopropylphenyl)azetidine-1-carbonyl)oxetan-3-yl)acetic acid], half-maximal inhibition (IC50) required 16 nM. This IC50 and that of the molecule before are within 1.5-fold of each other. `Cc1ccc(NC(=O)C2(c3ccccc3C(C)C)CN(S(=O)(=O)CCC(=O)NOCc3ccccc3)C2)c(OC(F)F)n1` [Ex 13-28, 1-((3-((benzyloxy)amino)-3-oxopropyl)sulfonyl)-N-(2-(difluoromethoxy)-6-methylpyridin-3-yl)-3-(2-isopropylphenyl)azetidine-3-carboxamide] displayed an IC50 of 110 nM. `Cc1ccc(NC(=O)C2(c3ccccc3C(C)C)CN(S(=O)(=O)C3(CC(=O)O)CC3)C2)c(OC(F)F)n1` [Ex 13-14, 2-(1-((3-((2-(difluoromethoxy)-6-methylpyridin-3-yl)carbamoyl)-3-(2-isopropylphenyl)azetidin-1-yl)sulfonyl)cyclopropyl)acetic acid] yielded an IC50 of 10 nM. For `Cc1ccc(NC(=O)C2(c3ccccc3C(C)C)CN(Cc3ccc(C(=O)O)o3)C2)c(OC(F)F)n1` [Ex 11-57, 5-((3-((2-(difluoromethoxy)-6-methylpyridin-3-yl)carbamoyl)-3-(2-isopropylphenyl)azetidin-1-yl)methyl)furan-2-carboxylic acid], 12 nM corresponded to half-maximal inhibition (IC50). Molecule `Cc1ccc(NC(=O)C2(c3ccccc3C(C)C)CN(C(=O)CN3CC(O)C3)C2)c(OC(F)F)n1` [Ex 12-53, N-(2-(difluoromethoxy)-6-methylpyridin-3-yl)-1-(2-(3-hydroxyazetidin-1-yl)acetyl)-3-(2-isopropylphenyl)azetidine-3-carboxamide] gave an IC50 of 17 nM. This IC50 and that of the molecule before are within 1.5-fold of each other.

`Cc1ccc(NC(=O)C2(c3ccccc3C(C)C)CN(c3cnc(C(=O)O)cn3)C2)c(OC(F)F)n1` [Ex 18-9, 5-(3-((2-(difluoromethoxy)-6-methylpyridin-3-yl)carbamoyl)-3-(2-isopropylphenyl)azetidin-1-yl)pyrazine-2-carboxylic acid] had an IC50 of 11 nM. In the case of `CC(=O)N(O)CC(=O)N1CC(C(=O)Nc2ccc(C)nc2OC(F)F)(c2ccccc2C(C)C)C1` [Ex 12-136, 1-(N-acetyl-N-hydroxyglycyl)-N-(2-(difluoromethoxy)-6-methylpyridin-3-yl)-3-(2-isopropylphenyl)azetidine-3-carboxamide] it was 9 nM; in that of `Cc1ccc(NC(=O)C2(c3ccccc3C(C)C)CN(CCCC(C)(C)[N+](=O)[O-])C2)c(OC(F)F)n1` [Ex 11-61, N-(2-(difluoromethoxy)-6-methylpyridin-3-yl)-3-(2-isopropylphenyl)-1-(4-methyl-4-nitropentyl)azetidine-3-carboxamide], 39 nM. Molecule `CC(=O)NS(=O)(=O)CC(=O)N1CC(C(=O)Nc2ccc(C)nc2OC(F)F)(c2ccccc2C(C)C)C1` [Ex 16-3, 1-(2-(N-acetylsulfamoyl)acetyl)-N-(2-(difluoromethoxy)-6-methylpyridin-3-yl)-3-(2-isopropylphenyl)azetidine-3-carboxamide] registered an IC50 of 83 nM. `Cc1cnc(NC(=O)C2(c3ccccc3C(C)C)CN(S(=O)(=O)CCC(=O)O)C2)c(OC(F)F)c1` [Ex 80-2, 3-((3-((3-(difluoromethoxy)-5-methylpyridin-2-yl)carbamoyl)-3-(2-isopropylphenyl)azetidin-1-yl)sulfonyl)propanoic acid] came in with an IC50 of 110 nM. The molecule `CC(=O)N1CCC(CC(=O)N2CC(C(=O)Nc3ccc(C)nc3OC(F)F)(c3ccccc3C(C)C)C2)CC1` [Ex 12-137, 1-(2-(1-acetylpiperidin-4-yl)acetyl)-N-(2-(difluoromethoxy)-6-methylpyridin-3-yl)-3-(2-isopropylphenyl)azetidine-3-carboxamide] showed an IC50 of 225 nM. This IC50 lies about 2-fold higher than the previous one.
